Assay results from patent US7851473B2, “Amide compound” (Takeda Pharmaceutical Company Limited, priority 2004, dated 2010).

System: rat local cerebral ischemic model
Experiment: Cerebroprotective effect in a rat cerebral ischemic model (middle cerebral artery occlusion)
Format: in vivo
Conditions: SD rats, 120 minutes occlusion; intravenous, immediately after reperfusion and after 2, 4 and 6 hours; measured two days after ischemia; p<0.05
Description: The compound obtained in Example 1 as an FAAH inhibitory agent (hereinafter, referred to as Compound A) was administered intravenously to a rat local cerebral ischemic model, and the inhibitory effect of the compound on cerebral infarct volume was examined. For the cerebral ischemic model, 8 weeks-old male SD rats (CLEA Japan, Inc.) were used to generate a middle cerebral artery occlusion model (Kiyota, et al., Experimental Brain Research, 95, 388-396 (1993)). That is, under halothane anesthesia, a silicone-coated plug was inserted into the rat from the right common carotid artery to the origin of middle cerebral artery to induce occlusion for 120 minutes. Compound A of Example was intravenously administered immediately after reperfusion and after 2, 4 and 6 hours, respectively. Two days after the ischemia treatment, the rat brain was extracted, 2 mm-thick slices of anterior maxillary section were prepared therefrom, and the cerebral infarct volume was measured from their TTC-stained images by image analysis.

In the case of `O=C(Nc1noc2ccccc12)N1CCN(c2nc(-c3ccccc3)ns2)CC1` [Compound A], the “cerebral infarct volume compared with the solvent-administered group” value was “significantly smaller”.
